In patent US9458181B2, “Cathepsin cysteine protease inhibitors” (Merck Sharp & Dohme Corp., priority 2013, dated 2016) one finds IC50 data, which are given here for 20 molecules.

The target of experiment [1] is human cathepsin K (UniProt P43236). The experiment in a line: Cathepsin K Assay (hrbCat K). In kind it is biochemical. As to conditions: human cathepsin K 0.4 nM, Z-Leu-Arg-AMC 8 μM, pH 5.5, 15 min preincubation; read-out: hrbCat K IP. In short, it runs like this:
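Human cathepsin K (0.4 nM) in pH 5.5 MES buffer with EDTA, DTT and 10% DMSO was preincubated 15 min at room temperature with compound from a ⅓ dilution series (500-0.025 μM DMSO stocks). Z-Leu-Arg-AMC (8 μM) was then added, and AMC release was followed fluorometrically (Ex 360/Em 460 nm) for 30 min; inhibition was fitted to a dose-response model.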

In experiment [2] the target is T1, human cathepsin F (Homo sapiens, UniProt Q9UBX1).
T1 sequence (Q9UBX1 271-484): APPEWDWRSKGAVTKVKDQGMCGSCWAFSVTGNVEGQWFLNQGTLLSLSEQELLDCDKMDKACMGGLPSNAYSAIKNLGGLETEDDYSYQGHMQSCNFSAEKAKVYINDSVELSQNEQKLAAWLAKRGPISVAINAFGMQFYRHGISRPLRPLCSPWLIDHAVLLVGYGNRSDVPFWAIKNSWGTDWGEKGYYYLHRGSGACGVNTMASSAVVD
The experiment in a line: Cathepsin F assay (hCat F). The note with it: human cathepsin F 10 nM, Z-Phe-Arg-AMC 8 μM, pH 5.5, 15 min preincubation; read-out: hCat F IP. In kind it is biochemical. A digest of the protocol: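 Fluorogenic read-out: cleavage of Z-Phe-Arg-AMC (8 μM in added buffer) was followed at Ex 360/Em 460 nm for 20 min, with dose-response fitting of percent inhibition. Before substrate addition, 10 nM human enzyme was incubated 15 min at room temperature with compounds (DMSO stocks 500–0.025 μM) in pH 5.5 MES/EDTA/DTT buffer containing 10% DMSO.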

As to `N#CC1(NC(=O)[C@@H]2CC3CC3C[C@H]2c2oc(-c3ccc(F)cn3)nc2-c2ccc(N3CCS(=O)(=O)CC3)cc2)CC1` (single isomer, unassigned) [Example 8, (1S,3R,4R,6R or 1R,3R,4R,6S)-N-(1-Cyanocyclopropyl)-4-(4-(4-(1,1-dioxidothiomorpholino)phenyl)-2-(5-fluoropyridin-2-yl)oxazol-5-yl)bicyclo[4.1.0]heptane-3-carboxamidc], the IC50 was found to be 9.56 nM in experiment [1] and 1620 nM in experiment [2].

For the molecule `C[C@@H](C#N)NC(=O)[C@@H]1CC(F)(F)CC[C@H]1c1oc(C(F)(F)C(F)(F)F)nc1-c1ccc(C(=O)N2CCOCC2)cc1` [Example 137, (1R,2R)-N-((S)-1-cyanoethyl)-5,5-difluoro-2-(4-(4-(morpholine-4-carbonyl)phenyl)-2-(perfluoroethyl)oxazol-5-yl)cyclohexanecarboxamide], the IC50 in experiment [1] turned out to be 0.39 nM; in experiment [2], 295 nM.

For `N#CC1(NC(=O)[C@@H]2CC(F)(F)CC[C@H]2c2sc(CC(F)(F)F)nc2-c2ccc(N3CCS(=O)(=O)CC3)cc2)CC1` [Example 57, (1R,2R)-N-(1-cyanocyclopropyl)-2-(4-(4-(1,1-dioxidothiomorpholino)phenyl)-2-(2,2,2-trifluoroethyl)thiazol-5-yl)-5,5-difluorocyclohexane-carboxamide], the IC50 in experiment [1] came to 0.58 nM; in experiment [2], 93 nM.

Consider `N#CC1(NC(=O)[C@@H]2CCCC[C@H]2c2oc(-c3nccs3)nc2-c2ccc(N3CCS(=O)(=O)CC3)cc2)CC1` [Example 78, (1R,2R)-N-(1-cyanocyclopropyl)-2-(4-(4-(1,1-dioxidothiomorpholino)phenyl)-2-(thiazol-2-yl)oxazol-5-yl)cyclohexanecarboxamide], for which the IC50 stood at 2.49 nM in experiment [1] and 2650 nM in experiment [2].

Turning to `Cc1ncc(-c2nc(-c3ccc(N4CCS(=O)(=O)CC4)cc3)c([C@@H]3CCCC[C@H]3C(=O)NC3(C#N)CC3)o2)cn1` [Example 103, (1R,2R)-N-(1-cyanocyclopropyl)-2-(4-(4-(1,1-dioxidothiomorpholino)phenyl)-2-(2-methylpyrimidin-5-yl)oxazol-5-yl)cyclohexanecarboxamide], the IC50 was found to be 1.35 nM in experiment [1] and 1840 nM in experiment [2].

As for `CN(C(=O)OC(C)(C)C)c1ccc(-c2nc(-c3ccc(F)cc3)oc2[C@@H]2CCCC[C@H]2C(=O)NC2(C#N)CC2)cc1` [Example 48, tert-butyl (4-(5-((1R,2R)-2-((1-cyanocyclopropyl)carbamoyl)cyclohexyl)-2-(4-fluorophenyl)oxazol-4-yl)phenyl)(methyl)carbamate], the values for the IC50 in experiment [1] and in experiment [2] were 7.4 nM and 176 nM, respectively.

Turning to `CC(C)(C)c1nc(-c2ccc(N3CCS(=O)(=O)CC3)cc2)c([C@@H]2CCC(F)(F)C[C@H]2C(=O)NC2(C#N)CC2)o1` [Example 19, (1R,2R)-2-(2-(tert-butyl)-4-(4-(1,1-dioxidothiomorpholino)phenyl)oxazol-5-yl)-N-(1-cyanocyclopropyl)-5,5-difluorocyclohexane-carboxamide], the IC50 in experiment [1] turned out to be 0.54 nM; in experiment [2] it was 81 nM.

On to `CC(C)[C@@H](C#N)NC(=O)[C@@H]1CC(F)(F)CC[C@H]1c1oc(C(F)(F)C(F)(F)F)nc1-c1ccc(C(=O)N2CCOCC2)cc1` [Example 148, (1R,2R)-N-((S)-1-cyano-2-methylpropyl)-5,5-difluoro-2-(4-(4-(morpholine-4-carbonyl)phenyl)-2-(perfluoroethyl)oxazol-5-yl)cyclohexanecarboxamide], for which the IC50 in experiment [1] is 1.03 nM; in experiment [2], 280 nM.

As to `CCC(C#N)NC(=O)[C@@H]1CCCC[C@H]1c1oc(-c2ccc(F)cc2)nc1-c1ccc(N2CCS(=O)(=O)CC2)cc1` (single isomer, unassigned) [Example 126, (1R,2R)-N-((R or S)-1-cyanopropyl)-2-(4-(4-(1,1-dioxidothiomorpholino)phenyl)-2-(4-fluorophenyl)oxazol-5-yl)cyclohexanecarboxamide], the figures for the IC50 in experiment [1] and in experiment [2] were 14.6 nM and 9020 nM, respectively.

As to `Cc1nc(-c2ccc(N3CCS(=O)(=O)CC3)cc2)c([C@@H]2CCC(F)(F)C[C@H]2C(=O)NC2(C#N)CC2)o1` [Example 18, (1R,2R)-N-(1-cyanocyclopropyl)-2-(4-(4-(1,1-dioxidothiomorpholino)phenyl)-2-methyloxazol-5-yl)-5,5-difluorocyclohexane-carboxamide], the IC50 in experiment [1] came out at 0.48 nM; in experiment [2] it was 178 nM.

On to `N#CC1(NC(=O)[C@@H]2CCCC[C@H]2c2oc(-c3cccc(F)c3)nc2-c2ccc(N3CCS(=O)(=O)CC3)cc2)CC1` [Example 62, (1R,2R)-N-(1-cyanocyclopropyl)-2-(4-(4-(1,1-dioxidothiomorpholino)phenyl)-2-(3-fluorophenyl)oxazol-5-yl)cyclohexanecarboxamide], for which the IC50 in experiment [1] is 0.92 nM; in experiment [2], 492 nM.

Consider `N#CC1(NC(=O)[C@@H]2C[C@@H](F)CC[C@H]2c2oc(C(F)(F)C(F)(F)F)nc2-c2ccc(N3CCS(=O)(=O)CC3)cc2)CC1` [Example 42, (1R,2R,5S)-N-(1-cyanocyclopropyl)-2-(4-(4-(1,1-dioxidothiomorpholino)phenyl)-2-(perfluoroethyl)oxazol-5-yl)-5-fluorocyclohexane-carboxamide], for which the IC50 came out at 2.41 nM in experiment [1] and 1860 nM in experiment [2].

As to `N#CC1(NC(=O)[C@@H]2CCCC[C@H]2c2oc(C3CCC(F)(F)C3)nc2-c2ccc(N3CCS(=O)(=O)CC3)cc2)CC1` (mixture of isomers) [Example 114, (1R,2R)-N-(1-cyanocyclopropyl)-2-(2-((R and S)-3,3-difluorocyclopentyl)-4-(4-(1,1-dioxidothiomorpholino)phenyl)oxazol-5-yl)cyclohexanecarboxamide], the figures for the IC50 in experiment [1] and in experiment [2] were 1.7 nM and 1520 nM, respectively.

For `CS(=O)(=O)N1CCN(C(=O)c2ccc(-c3nc(C(F)(F)C(F)(F)F)oc3[C@@H]3CCC(F)(F)C[C@H]3C(=O)NC3(C#N)CC3)cc2)CC1` [Example 140, (1R,2R)-N-(1-cyanocyclopropyl)-5,5-difluoro-2-(4-(4-(4-(methylsulfonyl)piperazine-1-carbonyl)phenyl)-2-(perfluoroethyl)oxazol-5-yl)cyclohexanecarboxamide], the values for the IC50 in experiment [1] and in experiment [2] were 1.93 nM and 372 nM, respectively.

In the case of `N#CC1(NC(=O)[C@@H]2CCCC[C@H]2c2oc(-c3ccc(OC(F)F)nc3)nc2-c2ccc(N3CCS(=O)(=O)CC3)cc2)CC1` [Example 91, (1R,2R)-N-(1-cyanocyclopropyl)-2-(2-(6-(difluoromethoxy)pyridin-3-yl)-4-(4-(1,1-dioxidothiomorpholino)phenyl)oxazol-5-yl)cyclohexanecarboxamide], the IC50 in experiment [1] came to 1.3 nM; in experiment [2], 1670 nM.

As for `CC(C)(C)OC(=O)Nc1ccc(-c2nc(-c3ccc(F)cc3)oc2[C@@H]2CCCC[C@H]2C(=O)NC2(C#N)CC2)cc1` [Example 49, tert-butyl (4-(5-((1R,2R)-2-((1-cyanocyclopropyl)carbamoyl)cyclohexyl)-2-(4-fluorophenyl)oxazol-4-yl)phenyl)carbamate], the IC50 worked out at 4.01 nM in experiment [1] and 1340 nM in experiment [2].

On to `CC(C)(O)C(C#N)NC(=O)[C@@H]1CCCC[C@H]1c1oc(-c2ccc(F)cc2)nc1-c1ccc(N2CCS(=O)(=O)CC2)cc1` (single isomer, unassigned) [Example 158, (1R,2R)-N-((R or S)-1-cyano-2-hydroxy-2-methylpropyl)-2-(4-(4-(1,1-dioxidothiomorpholino)phenyl)-2-(4-fluorophenyl)oxazol-5-yl)cyclohexanecarboxamide], for which the IC50 is 9740 nM in experiment [1] and no less than 10000 nM in experiment [2].

Consider `N#CC1(NC(=O)[C@@H]2CCCC[C@H]2c2oc(-c3ccc(C4CC4)cc3)nc2-c2ccc(N3CCS(=O)(=O)CC3)cc2)CC1` [Example 101, (1R,2R)-N-(1-cyanocyclopropyl)-2-(2-(4-cyclopropylphenyl)-4-(4-(1,1-dioxidothiomorpholino)phenyl)oxazol-5-yl)cyclohexanecarboxamide], for which the IC50 in experiment [1] turned out to be 0.88 nM; in experiment [2], 377 nM.

On to `Cc1nccc(-c2nc(-c3ccc(N4CCS(=O)(=O)CC4)cc3)c([C@@H]3CCCC[C@H]3C(=O)NC3(C#N)CC3)o2)n1` [Example 82, (1R,2R)-N-(1-cyanocyclopropyl)-2-(4-(4-(1,1-dioxidothiomorpholino)phenyl)-2-(2-methylpyrimidin-4-yl)oxazol-5-yl)cyclohexanecarboxamide], for which the IC50 in experiment [1] worked out at 2.66 nM; in experiment [2], 5140 nM.

As to `N#CC1(NC(=O)[C@@H]2CCC(F)(F)C[C@H]2c2oc(C(F)(F)C(F)(F)F)nc2-c2ccc(N3CCS(=O)(=O)CC3)cc2)CC1` [Example 150, (1R,2R)-N-(1-cyanocyclopropyl)-2-(4-(4-(1,1-dioxidothiomorpholino)phenyl)-2-(perfluoroethyl)oxazol-5-yl)-4,4-difluorocyclohexane-carboxamide], the IC50 was 4.7 nM in experiment [1] and no less than 10000 nM in experiment [2].
